{"source": "patent US11021461B2", "about": "“Artificial catalyst system for selective acylation of chromosome protein” (THE UNIVERSITY OF TOKYO, priority 2015, dated 2021)", "type_in_all_cases": "biochemical", "key": {"[1]": {"molecular_target": "T1, histones (reconstituted nucleosome) (Homo sapiens, UniProt P04908+P06899+P62805+P68431)", "T1 construct": "made in house", "test": "Protein selective acetylation of reconstituted nucleosome mixed with cytoplasm fraction (western blotting, acetylated lysine antibody)", "settings": "reconstituted nucleosome + cytoplasm fraction 15%, Ligand-DSH 2 to 5 μM, acyl donor 1 mM, TCEP 100 μM, room temperature, 5 hours; FIG. 3A", "source_text": "(§1) Proteins were separated on a 4-20% SDS-PAGE gel, and transferred to a PVDF membrane, followed by blocking with 5% skim milk suspended in TBST for the reaction between the PVDF membrane and primary antibodies. The primary antibodies used were as follows.\n(§2) Acetylated-lysine antibody (#9441, Cell Signaling), anti-acetyl Histone H4 (Lys77) (ABE186, Millipore), anti-acetyl Histone H2B (Lys120) (ab176430, Abcam), malonylated-lysine antibody (PTM-901, PTM Biolabs), glutarylated-lysine antibody (PTM-1151, PTM Biolabs), butyrylated-lysine antibody (PTM-301, PTM Biolabs), 2-hydroisobutyrylated antibody (PTM-801, PTM Biolabs), streptavidin-HRP (#3999S, Cell Signaling).\n(§3) After washing with TBST, a secondary antibody (Anti-Rabbit IgG, HRP-linked, NA934V, GE) was reacted. The PVDF membrane was treated with a chemilluminescent detection reagent Luminata Forte Western HRP Substrate (Millipore), and the detection was performed using ImageQuant LAS 4000 (GE healthcare life sciences).\n(§4) A buffer solution (20 mM Tris-HCl, pH 7.5) containing a reconstituted nucleosome (33 μg/mL 601 DNA) and a cytoplasm fraction (15%) was added with Ligand-DSH (2 to 5 μM), acyl CoA (1 mM), and TCEP (100 μM), followed by reaction at room temperature for 5 hours. Thereafter, western blotting was performed.\nFirst, protein selectivity was evaluated. A reconstituted nucleosome prepared in accordance with a known method (Tachiwana, H. et al., Proceedings of the National Academy of Sciences of the United States of America 2010, 107, 10454-10459) and cytoplasm fractions acquired from living cells were mixed. Then, evaluation was carried out on whether or not the newly developed catalyst could selectively acetylate histones by western blotting using an acetylation lysine antibody (FIG. 3A)."}, "reconstituted nucleosome": {"molecular_target": "T2, reconstituted nucleosome (Homo sapiens, UniProt P04908+P06899+P62805+P68431)", "T2 construct": "made in house", "test": "Yield determination by LC-MS/MS and exhaustive analysis of lysine residue selectivity", "settings": "for lysine residue selectivity: acetylation of reconstituted nucleosome, FIGS. 5 and 6", "procedure": "Cooled trichloroacetic acid (30 μL) was added, and the resultant was placed on ice for 30 minutes. After the centrifugation (4° C., 15000 rpm, 5 minutes), the supernatant was removed. After further centrifugation (4° C., 15000 rpm, 1 minute), the supernatant was again removed. Cooled acetone (450 μL) was added. After the centrifugation (4° C., 15000 rpm, 5 minutes), the supernatant was removed. After further centrifugation (4° C., 15000 rpm, 1 minute), the supernatant was again removed. The above procedure was repeated once more. […] A 1M sulfuric acid (25 μL) was added and placed on ice for 1 hour, followed by centrifugation (4° C., 15000 rpm, 5 minutes), and the supernatant was collected. Centrifugation (4° C., 15000 rpm, 1 minute) was performed again to collect the supernatant to combine with the earlier supernatant. The resultant was added with acetone (500 μL), followed by sufficient stirring, and was placed overnight at −30° C. After the centrifugation (4° C., 15000 rpm, 5 minutes), the supernatant was removed. After further centrifugation (4° C., 15000 rpm, 1 minute), the supernatant was again removed. After drying was performed with a centrifugal evaporator for 10 minutes, an aqueous solution of ammonium bicarbonate (0.1 M, 20 μL) was added. The resultant was added with a mixture of propionic anhydride and methanol (1:3, 20 μL) prepared immediately before, further added with ammonia water (15 μL), and was placed at room temperature for 30 minutes. Drying was performed with a centrifugal evaporator for 75 minutes, followed by treatment with a digestive enzyme.\nIn the case of trypsin: an aqueous solution of ammonium bicarbonate (0.1M, 50 μL) and trypsin (1 μg) were added, followed by reaction at 37° C. for 21 hours.\nIn the case of chymotrypsin: 100 mM Tris-HCl, 10 mM CaCl2 (50 μL, pH8.0), and chymotrypsin (8 μg) were added, followed by reaction at 25° C. for 21 hours.\nA 5% aqueous solution of formic acid (25 μL) was added, followed by drying with a centrifugal evaporator for 75 minutes. The residue was dissolved in a 0.1% aqueous solution of formic acid (15 μL), and the resultant was used for LC-MS/MS.\nEksigent ekspert™ MicroLC 200\nESI-Q-TOF MS, positive-ion mode.\nPrecursor ions are designated, and for each of the precursor ions, 2 to 4 MS/MS fragment ions having the highest strength were selected. Ion extraction (±0.5 Da) was performed for the designated precursor ions and the MS/MS fragment ions, and the yield was calculated in accordance with the equation below.\nFor a chromatogram obtained by performing measurement in an Information Dependent Acquisition Mode, the yield was determined in accordance with the following equation from the peak area subjected to ion extraction (±0.5 Da) after designating the precursor ions. yield (%)=[A/A+P]×100 (here, A represents a peak area of an acetylated peptide and P represents a peak area of a propionylated peptide)"}, "[2]": {"molecular_target": "T3, reconstituted nucleosome (H2BK120, H4K77) (Homo sapiens, UniProt P04908+P06899+P62805+P68431)", "T3 construct": "made in house", "test": "Lysine residue selective acetylation of reconstituted nucleosome (western blotting, residue-selective acetylated lysine antibodies)", "settings": "with acetyl CoA, FIG. 3B", "source_text": "as §1, §2\nas §3, with “sciences). […]” for “sciences).”\nNext, the selectivity of lysine residues in histones was evaluated. A similar reaction was evaluated by western blotting using a residue-selective acetylation lysine antibody."}, "[3]": {"molecular_target": "T1, histones (reconstituted nucleosome)", "test": "Acylation other than acetylation with catalyst and various acyl CoA (western blotting)", "settings": "catalyst with the corresponding acyl CoA; FIG. 9", "source_text": "as §1, §2, §3, §4\nIn light of the above, a study was carried out on whether or not acylation other than acetylation would be possible using the developed catalyst."}, "cytoplasm proteins": {"tested_on": "cytoplasm proteins", "test": "Comparison of reactivity of acetyl group donors with cytoplasm proteins (western blotting, anti-acetylated lysine antibody)", "settings": "acetyl group donor 1 mM, cytoplasm fraction 20%, room temperature, 10 hours; FIG. 1B", "procedure": "Approximately 10^6 cells were detached from a culture dish by a trypsin treatment. After washed with PBS, the cell pellets were suspended in a cooled, cell lysis buffer [50 mM Tris (pH 7.5), 300 mMNaCl, 0.3% Triton X-100, protease inhibitor cocktail, and 1 mM PMSF], and placed on ice for 30 minutes. After the centrifugation (4° C., 1500 rpm, 2 minutes), the supernatant was collected as a cytoplasm fraction.\nas §1, §2\nas §3, with “sciences). […]” for “sciences).”"}, "[4]": {"settings": "Ligand-DSH 2 μM, acetyl CoA 1 mM, TCEP 100 μM, 5 hours"}}, "note": "Square brackets hold non-standard residues; d marks the D form. Peptide text beside a SMILES is read from it. * marks the point of attachment. ξ: configuration not given here. Thr(3ξ) = CC(O)[C@H](N)C(=O)O; X1 = CN(CCC(=O)*)c1ccnc(CS)c1; ξR = N=C(N)NCCCC(N)C(=O)O; ξS = NC(CO)C(=O)O"}
{"smiles": "CC(=O)NCCSC(C)=O", "values": [{"measurement": "histone-selective acetylation", "setting": "[1]", "result": "histone-selective acetylation was observed in the same way"}]}
{"smiles": "CSCC[C@H](NC(=O)CNC(=O)CCN(C)c1ccnc(CS)c1)C(=O)NC(CCCNC(=N)N)C(=O)N[C@@H](CC(C)C)C(=O)NC(CCCNC(=N)N)C(=O)N[C@@H](CO)C(=O)NCC(=O)N[C@@H](CCCNC(=N)N)C(=O)NC(CO)C(=O)N[C@H](C(=O)NCC(N)=O)C(C)O", "note": "(stereo partly shown) [LANA-DSH] (X1-GM[ξR]L[ξR]SGR[ξS][Thr(3ξ)]G-NH2)", "values": [{"measurement": "acetylation yield of H2BK120", "setting": "reconstituted nucleosome; [4]", "result": 54, "unit": "%"}, {"measurement": "lysine residue selectivity", "setting": "reconstituted nucleosome", "result": "extremely high"}, {"measurement": "acetylation of H2BK120 (western blotting)", "setting": "[2]; anti-acetyl Histone H2B (Lys120)", "result": "strongly acetylated"}, {"measurement": "2-hydroxy-iso-butyrylation", "setting": "[3]", "result": "enabled"}, {"measurement": "biotinylation", "setting": "[3]", "result": "enabled"}, {"measurement": "butyrylation", "setting": "[3]", "result": "enabled"}, {"measurement": "glutarylation", "setting": "[3]", "result": "enabled"}, {"measurement": "malonylation", "setting": "[3]", "result": "enabled"}, {"measurement": "histone-selective acetylation", "setting": "[1]", "result": "histone-selective acetylation was achieved"}]}
{"smiles": "CON(C(C)=O)C(C)=O", "note": "[NMD, N-methoxydiacetamide]", "values": [{"measurement": "non-selective acetylation of cytoplasm proteins", "setting": "cytoplasm proteins", "result": "non-selectively acetylated a large quantity of protein"}]}
{"smiles": "CN(CCCNC(=O)CCN(C)c1ccnc(CS)c1)CCCNC(=O)c1cc(NC(=O)c2cc(NC(=O)c3cc(NC(=O)c4nc(NC(=O)CCCNC(=O)c5cc(NC(=O)c6cc(NC(=O)c7cc(NC(=O)c8nccn8C)cn7C)cn6C)cn5C)cn4C)cn3C)cn2C)cn1C", "note": "[PIP-DSH]", "values": [{"measurement": "acetylation yield of H3K36", "setting": "reconstituted nucleosome; [4]", "result": 14, "unit": "%"}, {"measurement": "acetylation yield of H3K56", "setting": "reconstituted nucleosome; [4]", "result": 9, "unit": "%"}, {"measurement": "acetylation yield of H4K77", "setting": "reconstituted nucleosome; [4]", "result": 14, "unit": "%"}, {"measurement": "lysine residue selectivity", "setting": "reconstituted nucleosome", "result": "high"}, {"measurement": "acetylation of H4K77 (western blotting)", "setting": "[2]; anti-acetyl Histone H4 (Lys77)", "result": "strongly acetylated"}, {"measurement": "histone-selective acetylation", "setting": "[1]", "result": "histone-selective acetylation was achieved"}]}
{"smiles": "CC(=O)SCCNC(=O)CCNC(=O)[C@H](O)C(C)(C)COP(=O)(O)OP(=O)(O)OC[C@H]1O[C@@H](n2cnc3c(N)ncnc32)[C@H](O)[C@@H]1OP(=O)(O)O", "note": "[acetyl CoA, reference compound]", "values": [{"measurement": "non-selective acetylation of cytoplasm proteins", "setting": "cytoplasm proteins", "result": "did not cause such non-selective acetylation"}, {"measurement": "histone-selective acetylation", "setting": "[1]", "result": "acetylation did not proceed"}]}
